Test system: Monocotyledonous and dicotyledonous test plants
Assay: Herbicidal action, application pre-emergence (Example B1)
Type: in vivo
Set-up: key: 10=total damage to plant; 0=no damage to plant
Settings: 1000 g/ha, evaluated after 9 or 13 days; for AGSTE herbicidal action (damage score 0-10): Agrostis-tenius; for AMARE herbicidal action (damage score 0-10): Amaranthus retroflexus; for DIGSA herbicidal action (damage score 0-10): Digitaria sanguinalis; for POATR herbicidal action (damage score 0-10): Poa trivialis; for SETIT herbicidal action (damage score 0-10): Setaria italica
Procedure: Monocotyledonous and dicotyledonous test plants were sown in sterilised standard soil in seed trays each having 96 cells. After one day (pre-emergence) under controlled conditions in a climatic chamber (cultivation at 23/17° C., day/night; 13 hours light; 50-60% humidity; after application at 24/19° C., day/night), the plants were treated with an aqueous spray solution of 1000 mg/l of the active ingredient used (including 10% DMSO as solvent). The plants were grown on in the climatic chamber until the test was evaluated (10=total damage to plant, 0=no damage to plant) after 9 or 13 days.

Structure (SMILES) | AGSTE herbicidal action (damage score 0-10) | AMARE herbicidal action (damage score 0-10) | DIGSA herbicidal action (damage score 0-10) | POATR herbicidal action (damage score 0-10) | SETIT herbicidal action (damage score 0-10)
Cc1nc(C[S+]([O-])C2=NOC(C)(C)C2F)n(C)n1 (single isomer, unassigned) [8.03] | 10 | 0 | 9 | 8 | –
CC1(C)ON=C([S+]([O-])Cc2c(F)cccc2F)C1F (single isomer, unassigned) [1.16] | 10 | 8 | 10 | 10 | 6
COCCn1nc(C[S+]([O-])C2=NOC(C)(C)C2F)c(C(F)(F)F)n1 (mixture of isomers) [7.19] | 6 | 10 | 9 | 10 | –
CC1(C)ON=C(SCc2nn(CC3CCC3)nc2C(F)(F)F)C1F (centres unmarked) [Compound No. 7.15] | 8 | 9 | 9 | 0 | –
Cn1nc(OC(F)F)c(C[S+]([O-])C2=NOC(C)(C)C2F)c1C(F)(F)F (single isomer, unassigned) [2.30] | 10 | 9 | 10 | 9 | 9
Cc1nc(C[S+]([O-])C2=NOC(C)(C)C2F)n(C)n1 (single isomer, unassigned) [8.02] | 10 | 4 | 10 | 10 | –
CC(c1nn(C)cc1C(F)(F)F)S(=O)(=O)C1=NOC(C)(C)C1F (centres unmarked) [4.04, 3-(1-(4-fluoro-5,5-dimethyl-4,5-dihydro-isoxazol-3-ylsulfonyl)-eth-1 yl)-1-methyl-4-trifluoromethyl-1H-pyrazole] | 10 | 9 | 9 | 8 | 9
CC(c1c(C(F)(F)F)nn(C)c1OC(F)F)S(=O)(=O)C1=NOC(C)(C)C1F (mixture of isomers) [Compound No. 2.27] | 10 | 10 | 10 | 10 | 10
CCn1cc(C[S+]([O-])C2=NOC(C)(C)C2F)c(C(F)(F)F)n1 (mixture of isomers) [2.46] | 10 | 10 | 9 | 10 | –
CC1(C)ON=C(S(=O)(=O)Cc2nn(C3CCCC3)nc2C(F)(F)F)C1F (centres unmarked) [7.14] | 10 | 8 | 9 | 8 | –
Cn1nc(C(F)(F)F)c(C[S+]([O-])C2=NOC(C)(C)C2Br)c1OCC(F)(F)F (mixture of isomers) [2.02] | 10 | 7 | 10 | 5 | 7
CCn1ncc(CSC2=NOC(C)(C)C2F)n1 (centres unmarked) [Compound No. 7.34] | 9 | 6 | 8 | 8 | –
COc1ncc(C[S+]([O-])C2=NOC(C)(C)C2F)c(C(F)(F)F)n1 (centres unmarked) [5.02] | 10 | 10 | 10 | 10 | –
Cn1nc(C(F)(F)F)c(C[S+]([O-])C2=NOC(C)(C)C2(Cl)Cl)c1OCC(F)(F)F (centres unmarked) [2.20] | 5 | 4 | 9 | 8 | 7
COCCOc1c(C[S+]([O-])C2=NOC(C)(C)C2F)c(C(F)(F)F)nn1C (mixture of isomers) [2.58] | 10 | 10 | 10 | 10 | –
CC1(C)ON=C(S(=O)(=O)Cc2cccnc2Cl)C1F (centres unmarked) [3.06] | 10 | 8 | 0 | 10 | –
COCCn1nc(CS(=O)(=O)C2=NOC(C)(C)C2F)c(C(F)(F)F)n1 (centres unmarked) [7.20] | 10 | 10 | 10 | 10 | –
Cn1ncc(CS(=O)(=O)C2=NOC(C)(C)C2F)n1 (centres unmarked) [7.23] | 10 | 5 | 9 | 9 | –
Cn1nc(OC(F)F)c(CS(=O)(=O)C2=NOC(C)(C)C2F)c1C(F)(F)F (centres unmarked) [2.31] | 10 | 10 | 10 | 10 | 10
Cn1nc(C(F)(F)F)c(CSC2=NOC(C)(C)C2F)c1OC(F)F (centres unmarked) [Compound No. 2.22] | 10 | 9 | 9 | 9 | 9
CC1(C)ON=C([S+]([O-])Cc2nn(C3CCCC3)nc2C(F)(F)F)C1F (mixture of isomers) [7.13] | 10 | 4 | 9 | 8 | –
